Key:
BIR2 domain of XIAP = BIR2 domain of XIAP (Homo sapiens (Human), UniProt P98170, C202A/C213G); test: TR-FRET assay for BIR2 (inhibition of binding of XIAP BIR2 domain to Peptide A); settings: 6x His-tagged BIR2 domain (aa 124-240 of XIAP), 20 nM Peptide A
Procedure: (§1) TR-FRET Assay for BIR2 and BIR3
(§2) The peptides were labeled with the fluorescent tags FITC or TAMRA and Kd values were determined by fluorescence polarization assay. […] The peptide sequence was derivatized with biotin to provide […]-(ε-biotin)-OH 1:2 TFA as the substrate for the TR-FRET assay.
The XIAP protein sequence was obtained from the SWISS-PROT protein sequence database and the BIR2 and BIR3 domains were derived from that. The sequence of the BIR2 domain used for the TR-FRET assay is
(§3) Time-resolved fluorescence resonance energy transfer (TR-FRET) signals were measured 1 hour later at room temperature. Test compound potency was assessed at 10 serially diluted concentrations. Percentage of inhibition at each concentration was determined to generate an IC50 value for each test compound.

BIR3 domain of XIAP = BIR3 domain of XIAP (Homo sapiens (Human), UniProt P98170); test: TR-FRET assay for BIR3 (inhibition of binding of XIAP BIR3 domain to Peptide A); settings: 6x His-tagged BIR3 domain (aa 241-356 of XIAP), 20 nM Peptide A
Procedure: as §1, §2
The sequence of the BIR3 domain used for the TR-FRET assay is
as §3

Sequence of BIR2 domain of XIAP (P98170 other isoform, or with tags, fused parts or gaps, stated change not applied): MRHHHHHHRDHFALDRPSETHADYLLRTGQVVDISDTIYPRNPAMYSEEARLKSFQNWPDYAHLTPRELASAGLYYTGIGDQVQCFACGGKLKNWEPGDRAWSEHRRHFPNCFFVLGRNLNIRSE
Sequence of BIR3 domain of XIAP (P98170 other isoform, or with tags, fused parts or gaps): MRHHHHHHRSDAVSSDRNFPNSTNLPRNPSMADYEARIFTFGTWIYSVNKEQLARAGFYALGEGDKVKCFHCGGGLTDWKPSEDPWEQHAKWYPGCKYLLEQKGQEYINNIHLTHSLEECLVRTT

| IC50 (BIR2 domain of XIAP) [µM] | IC50 (BIR3 domain of XIAP) [µM] | Compound |
| --- | --- | --- |
| 0.027 | > 54.8 | CN[C@@H](C)C(=O)N[C@H](C(=O)N1CCc2ccc(F)cc2[C@H]1C(=O)Nc1c(F)cccc1F)C(C)C [Example 42, N-(2,6-difluorophenyl)-7-fluoro-2-((S)-3-methyl-2-((S)-2-(methylamino)propanamido)butanoyl)-1,2,3,4-tetrahydroisoquinoline-1-carboxamide] |
| 0.047 | > 54.8 | CN[C@@H](C)C(=O)N[C@H](C(=O)N1CCc2ccc(Cl)cc2[C@H]1C(=O)Nc1c(F)cccc1F)C(C)C [Example 45, 7-chloro-N-(2,6-difluorophenyl)-2-((S)-3-methyl-2-((S)-2-(methylamino)propanamido)butanoyl)-1,2,3,4-tetrahydroisoquinoline-1-carboxamide] |
| 2.35 | > 54.8 | CN[C@@H](C)C(=O)N[C@H](C(=O)N1CCc2ccc(F)cc2[C@@H]1C(=O)Nc1c(F)cccc1F)C(C)C [Example 41, N-(2,6-difluorophenyl)-7-fluoro-2-((S)-3-methyl-2-((S)-2-(methylamino)propanamido)butanoyl)-1,2,3,4-tetrahydroisoquinoline-1-carboxamide] |
| 4.71 | > 54.8 | CN[C@@H](C)C(=O)N[C@H](C(=O)N1CCc2ccc(Cl)cc2[C@@H]1C(=O)Nc1c(F)cccc1F)C(C)C [Example 44, 7-chloro-N-(2,6-difluorophenyl)-2-((S)-3-methyl-2-((S)-2-(methylamino)propanamido)butanoyl)-1,2,3,4-tetrahydroisoquinoline-1-carboxamide] |

From patent US9422332B2, “Azaheterocycles as BIR2 and/or BIR3 inhibitors” (Hoffmann-La Roche Inc., priority 2012, dated 2016)
